The assay addresses SGK1 (human) (UniProt O00141). The experiment in a line: Flashplate.

Bounds are passed on as bounds.

Chain of SGK1 (human) (O00141 whole entry, looked up): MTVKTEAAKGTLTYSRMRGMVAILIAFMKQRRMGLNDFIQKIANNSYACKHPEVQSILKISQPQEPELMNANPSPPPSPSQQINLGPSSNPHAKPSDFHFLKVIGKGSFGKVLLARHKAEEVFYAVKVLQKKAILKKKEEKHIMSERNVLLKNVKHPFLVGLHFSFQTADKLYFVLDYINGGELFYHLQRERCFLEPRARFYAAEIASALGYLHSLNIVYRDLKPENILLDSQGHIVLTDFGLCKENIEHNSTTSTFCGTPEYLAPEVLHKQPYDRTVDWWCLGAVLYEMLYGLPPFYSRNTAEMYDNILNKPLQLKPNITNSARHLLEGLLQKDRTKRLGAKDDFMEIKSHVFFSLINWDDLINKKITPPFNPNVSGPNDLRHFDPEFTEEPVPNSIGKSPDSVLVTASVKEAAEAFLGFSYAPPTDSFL

Consider `Cc1nsc2[nH]cc(C(=O)O)c(=O)c12`, for which the Ki – broadly, a measure of affinity in units of concentration, obtained from inhibition or displacement – was above 10 µM. Next, `COc1ccc(C(=O)N2c3ccccc3Sc3c(Cl)cncc32)cc1`: 0.398 µM; `O=C1NC(=O)C(c2cnc3ccccn23)=C1c1cn2c3c(cccc13)CN(C(=O)N1CCOCC1)CC2`: above 10 µM; `O=c1[nH]c2cnc(-n3cnc4ccc(F)cc43)nc2n1[C@@H]1CCOc2c(F)cccc21`: above 10 µM. In turn, `COc1cc(N2CCC(N3CCN(C)CC3)CC2)ccc1Nc1ncc(Cl)c(Nc2ccccc2S(=O)(=O)C(C)C)n1` showed a Ki above 10 µM. Next, `NC(=O)c1ccc(N[C@H]2CCCC[C@H]2N)nc1Nc1cccc(Cl)c1`: above 6.31 µM. With `Cc1cc(NC(=O)CCNC(=O)Nc2nc(C)c(-c3ccc(-n4cccn4)cc3)s2)no1`, the Ki was above 10 µM. As for `CC(C)Oc1ccc(-c2noc(-c3ccc(N[C@H]4CC[C@@H](C(=O)O)C4)cc3)n2)cc1Cl`, the Ki is above 10 µM. Under `COc1ccc(-c2ccc(NC(=O)Nc3ccc(F)c(C)c3)cc2)c2c(N)noc12` stands above 10 µM.

As to `Nc1n[nH]c2cccc(-c3ccc(NC(=O)Nc4cc(CO)ccc4F)cc3)c12`, the Ki was determined as 0.398 µM. In the case of `Nc1nccn2c(C3CC(CN4CCCC4)C3)nc(-c3cccc(OCc4ccccc4)c3)c12` (stereo not given), the Ki was above 10 µM. Under `CCCC(=O)Nc1n[nH]c2nnc(-c3cccc(F)c3F)cc12` stands above 10 µM. Next, `Nc1ncnc2c1c(-c1cccc(OCc3ccccc3)c1)cn2[C@H]1C[C@H](CN2CCCC2)C1`: above 10 µM; `COc1cc(-c2ccc3c(c2)Nc2ccc(C(=O)NCc4cccc(F)c4)cc2NC3=O)ccc1O`: above 10 µM.

The compound `CCn1c2cc(Cl)c(F)cc2c(=O)c2c(=O)o[nH]c21` gave a Ki above 10 µM. `COc1ccc2c(NC(=O)Nc3cccc(Br)n3)ccnc2c1`: the inhibitory constant (Ki) is above 10 µM. For `CC1CSc2c(C(=O)O)c(=O)c3cc(F)c(N4CC[C@@H](N)C4)c(F)c3n21` (stereo not given in full), the Ki is above 10 µM.

In the case of `COCCNc1nccc(-c2c(-c3ccc(F)cc3)nc3cnccn23)n1`, the Ki was above 10 µM. Under `O=C(NNC(=S)Nc1ccc(F)cc1)C(O)(c1ccccc1)c1ccccc1` stands above 10 µM. In the case of `Cc1cc2cc(-c3csc4c(-c5cccc(S(C)(=O)=O)c5)cnc(N)c34)ccc2[nH]1`, the Ki was above 10 µM. Under `O=C(N[C@H](CO)Cc1ccccc1)c1ccc(-c2ccncc2)cc1F` stands above 10 µM. Turning to `Cc1ccc(NC(=O)Nc2ccc(NC(=O)c3csc4ncnc(N)c34)cc2)cc1`, the Ki was above 10 µM. Under `N#Cc1ncc2nc1OCCCCCOc1cc(OCCO)c(Cl)cc1NC(=O)N2` stands above 10 µM. In turn, `Clc1csc2ncnc(Nc3ccccc3)c12` came in with a Ki above 10 µM. Next, `Cc1cccc(NC(=O)Nc2ccc(-c3csc4c(C#Cc5cccnc5)cnc(N)c34)cc2)c1`: above 10 µM. Next, `NC(=O)C1CCCN(C(=O)c2cc(-c3ccc4[nH]ncc4c3)on2)C1` (stereo not given): above 10 µM. Under `Nc1n[nH]c2nnc(-c3ccccc3)c(-c3ccccc3)c12` stands 2.51 µM; under `NCCOc1cncc(/C=C/c2ccncc2)c1`, above 10 µM; under `COc1ccc(-c2cc3nccn3c(Nc3ccccc3C(N)=O)n2)cc1OC`, above 10 µM.

`CNC(=O)/C=C/c1cnc(N)c2c(-c3ccc4c(c3)OCO4)csc12` had a Ki above 10 µM. Turning to `CC(C)c1nnc2ccc(-c3c(-c4ccc(F)cc4F)nc4n3CCC4)nn12`, the Ki is above 10 µM. The compound `Fc1ccc(-c2ncn(CCN3CCOCC3)c2-c2ccc3[nH]ncc3c2)cc1` returned a Ki above 10 µM.

In the case of `Nc1ncc(/C=C/C(=O)NCCCn2ccnc2)c2scc(-c3ccc(Br)cc3)c12`, the inhibition constant Ki is above 10 µM. In turn, `COc1cc(OC)c(Nc2ccc3nnc(-c4ccccc4)n3n2)cc1Cl` yielded a Ki above 10 µM. Turning to `O=C1NCc2c1cccc2-c1ccc(Nc2nc3ccccc3o2)cc1`, the Ki is above 10 µM.

In the case of `O=C(Nc1nc2ccccc2n1CCCO)c1cccc([N+](=O)[O-])c1`, the Ki was above 10 µM.

In turn, `O=C(Cc1ccc(Cl)cc1)Nc1[nH]nc2c1CCC2` yielded a Ki above 10 µM. Turning to `NC(=O)c1cccc2[nH]c(-c3ccc(NC(=O)c4cccc(S(=O)(=O)N5CCOCC5)c4)cc3)nc12`, the Ki is above 10 µM. For the compound `COc1cc(/C=C2\S/C(=N\c3ccccc3)NC2=O)ccc1O`, the Ki is 5.01 µM. The compound `Cc1ccc(-c2ccc(NC(=O)Nc3cccc(Br)c3)cc2)c2c(N)n[nH]c12` showed a Ki of 5.01 µM. `COc1cccc([C@@H](C)NC(=O)c2ccc(-c3ccncc3)cc2)c1` had a Ki of 0.398 µM. `Nc1ncnc2c1c(I)nn2[C@@H]1O[C@H](CO)[C@@H](O)[C@H]1O` yielded a Ki above 10 µM. The compound `Cc1nc(COc2ccccc2Cl)sc1-c1ccnc(N)n1` yielded a Ki of 1 µM. Next, `Nc1noc2cccc(-c3cccc(O)c3)c12`: above 10 µM. Compound `CSc1c[nH]c2ncnc(NCCCO)c12` gave a Ki above 10 µM. In turn, `CC(C)(CO)CNc1nccc(-c2c(-c3ccc(F)cc3)nc3c(Cl)nccn23)n1` came in with a Ki above 10 µM. Next, `COc1cc2cnc3c(c2cc1OC)C(=O)NC3=O`: above 10 µM; `O=C(Nc1cccc(C(F)(F)F)n1)Nc1ccnc2cc(C(F)(F)F)ccc12`: above 10 µM. In turn, `O=C(O)c1cc2c(-c3ccccc3)cncc2s1` had a Ki of 3.98 µM. Consider `O=C(Nc1ccc(CO)cc1)c1cnn2c(-c3ccccc3)ccnc12`, for which the Ki is above 10 µM.

In turn, `Cc1c(O)cccc1NC(=O)c1cnn2c(-c3ccccc3)ccnc12` came in with a Ki above 10 µM. With `CC(C)n1nnc2ccc(-c3c(-c4ccc(F)cc4F)nc4occn34)cc21`, the Ki is above 10 µM. For the compound `O=c1[nH]c2cc(Cl)cc(Cl)c2c(-c2cc(Cl)ccc2O)c1O`, the Ki was above 10 µM.

The compound `O=C(Nc1n[nH]c2nc3ccccc3cc12)c1ccncc1` came in with a Ki of 1.58 µM. Under `Nc1ncnc2c1N=C(c1ccc(NC(=O)Nc3cc(C(F)(F)F)ccc3F)cc1)CCN2` stands 2.51 µM.

`Cc1cc(Nc2cc(N3CCN(C)CC3)nc(/C=C/c3ccccc3)n2)n[nH]1` had a Ki above 10 µM. Next, `COc1ccc(NC(=O)Nc2ccc(-c3csc4c(-c5cnn(CC(C)(C)O)c5)cnc(N)c34)cc2)cc1`: above 10 µM. Next, `Cc1nnc(-c2cc3c(Oc4ccc(C(F)(F)F)cc4)cncc3s2)o1`: above 10 µM.

For the compound `CN(C)CC(C)(C)CNc1nccc(-c2c(-c3ccc(F)cc3)nc3occn23)n1`, the Ki is above 10 µM. As for `O=C(NC(CO)Cc1ccc(Cl)cc1)c1ccc(-c2ccncc2)cc1` (stereo not given), the Ki was above 10 µM. With `CN(C)CC(C)(C)CNc1nccc(-c2c(-c3ccc(F)cc3)nc3cnccn23)n1`, the Ki was above 10 µM. Under `COc1cc(/C=C2/SC(=S)NC2=O)ccc1O` stands 3.16 µM; under `Nc1ncnc2c1N=C(c1ccc(NC(=O)Nc3cccc(C(F)(F)F)c3)cc1)CCN2`, 2.51 µM; under `O=C1Nc2ccccc2Nc2ccccc21`, above 10 µM.

Consider `Nc1nnc(-c2cc3c(Oc4ccc(Cl)cc4)cncc3s2)o1`, for which the inhibition constant Ki was 1.58 µM.

In the case of `O=C(Nc1cnccn1)Nc1ccnc2ccccc12`, the Ki stood at 1.26 µM. `NCCCOc1cncc(/C=C/c2ccncc2)c1`: the Ki was above 10 µM.

`N[C@H](COc1cncc(-c2ccc3c(c2)/C(=C/c2ccco2)C(=O)N3)c1)Cc1c[nH]c2ccccc12` registered a Ki of 0.0251 µM. As for `NC(=O)c1cc2c(-c3ccccc3)cncc2s1`, the Ki is 5.01 µM. The compound `COc1cc(/C=C(\C#N)c2nc3cc(C)ccc3[nH]2)c(Br)cc1O` showed an inhibitory constant (Ki) of 5.01 µM.

Source of the values: the kinase profiling compilation of Christmann-Franck et al. (2016).
